The source of these data is patent publication US8063071B2 (GlaxoSmithKline, LLC, priority 2007, dated 2011).

One may read the inhibition as the change of the read-out against control, counted positive when it falls.

Counter-ions that a name gives are not always drawn.

In experiment [1] the target is T1, Recombinant human IKKβ (residues 1-737) (Homo sapiens, UniProt O14920).
T1 construct: Recombinant human IKKβ (residues 1-737); GST (C); made in house
T1 sequence (O14920 1-737): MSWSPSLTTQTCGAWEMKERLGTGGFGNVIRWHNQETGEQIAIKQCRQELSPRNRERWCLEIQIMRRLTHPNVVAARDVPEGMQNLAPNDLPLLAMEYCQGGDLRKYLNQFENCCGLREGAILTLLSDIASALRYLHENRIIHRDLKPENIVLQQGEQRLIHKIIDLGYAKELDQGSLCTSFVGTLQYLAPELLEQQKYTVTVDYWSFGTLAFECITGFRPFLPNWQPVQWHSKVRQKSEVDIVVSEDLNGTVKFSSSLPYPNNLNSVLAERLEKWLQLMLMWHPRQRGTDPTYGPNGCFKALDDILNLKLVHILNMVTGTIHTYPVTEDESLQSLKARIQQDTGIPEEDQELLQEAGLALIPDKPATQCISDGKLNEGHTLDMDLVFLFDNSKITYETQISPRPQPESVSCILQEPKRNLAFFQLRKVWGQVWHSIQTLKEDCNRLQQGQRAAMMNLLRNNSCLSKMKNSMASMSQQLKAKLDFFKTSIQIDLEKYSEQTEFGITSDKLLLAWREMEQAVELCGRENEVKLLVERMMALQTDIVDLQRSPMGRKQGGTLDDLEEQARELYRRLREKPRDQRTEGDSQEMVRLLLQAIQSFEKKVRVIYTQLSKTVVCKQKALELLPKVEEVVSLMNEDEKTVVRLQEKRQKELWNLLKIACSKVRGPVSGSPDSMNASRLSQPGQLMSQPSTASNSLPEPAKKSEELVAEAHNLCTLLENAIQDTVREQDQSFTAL
Nature of the experiment: IKK2 assay (TR-FRET). It is filed as biochemical. Conditions: ATP 1 μM final, read-out: pIC50 against IKK2 (converted). In a few lines:
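TR-FRET readout (665 nm over 620 nm Eu reference) of GST-IB Ser32/36 phosphorylation after 60 min detection. Reaction: 1 μM ATP, 25 nM substrate, 0.5-5 nM GST-fused IKKβ 1-737 from baculovirus, pH 7.4 HEPES buffer, 1.7% DMSO, 15 min room temperature, EDTA-terminated.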
(In general: TR-FRET usually uses a lanthanide donor and a delayed reading to cut background.)

Experiment [2] relates to human monocyte stimulated cytokine production (TNF-α). Nature of the experiment: Monocyte assay (LPS-stimulated TNF-α production). It is filed as cell-based. Conditions: for IC50: 24 h, 200 ng/mL LPS, TNF-α by ELISA. An outline of the steps:
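TNF-α release was measured by ELISA after 24 hrs at 37 C. Cells were stimulated with 200 ng/mL E. coli LPS, with compound added 30 minutes beforehand (0.1% DMSO vehicle). Cells were Ficoll/MACS-isolated CD14+ human monocytes adhered at 1×10^6 cells/mL, and viability was checked by trypan blue.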
In general terms: An ELISA detects its analyte on a solid surface through an enzyme-linked reagent.

Turning to `CCS(=O)(=O)N1CCC(c2c[nH]c3c(C(N)=O)cc(-c4cc(F)cc(CN[C@H](C)C(C)C)c4)cc23)CC1` [Example 315, 5-[3-({[(1R)-1,2-dimethylpropyl]amino}methyl)-5-fluorophenyl]-3-[1-(ethylsulfonyl)-4-piperidinyl]-1H-indole-7-carboxamide trifluoroacetate], the values for the IC50 in experiment [1] and in experiment [2] were at most 10 µM and at most 1.5 µM, respectively.
In the case of `CCC(C)NCc1cc(F)cc(-c2cc(C(N)=O)c3[nH]cc(C4CCN(S(=O)(=O)CC)CC4)c3c2)c1` (stereo not shown) [Example 316, 3-[1-(ethylsulfonyl)-4-piperidinyl]-5-(3-fluoro-5-{[(1-methylpropyl)amino]methyl}phenyl)-1H-indole-7-carboxamide trifluoroacetate], the values for the IC50 in experiment [1] and in experiment [2] were at most 10 µM and at most 1.5 µM, respectively.
For the molecule `CCS(=O)(=O)N1CCC(c2c[nH]c3c(C(N)=O)cc(-c4cc(F)cc(CN[C@@H](C)C(C)(C)C)c4)cc23)CC1` [Example 317, 3-[1-(ethylsulfonyl)-4-piperidinyl]-5-[3-fluoro-5-({[(1S)-1,2,2-trimethylpropyl]amino}methyl)phenyl]-1H-indole-7-carboxamide trifluoroacetate], the IC50 in experiment [1] was at most 10 µM; in experiment [2] it was at most 1.5 µM.
Take `CC[C@H](C)CNCc1cc(F)cc(-c2cc(C(N)=O)c3[nH]cc(C4CCN(S(=O)(=O)CC)CC4)c3c2)c1` [Example 318, 3-[1-(ethylsulfonyl)-4-piperidinyl]-5-[3-fluoro-5-({[(2S)-2-methylbutyl]amino}methyl)phenyl]-1H-indole-7-carboxamide trifluoroacetate]: the IC50 is at most 10 µM in experiment [1] and at most 1.5 µM in experiment [2].
Take `CCC(C)CNCc1cc(F)cc(-c2cc(C(N)=O)c3[nH]cc(C4CCN(S(=O)(=O)CC)CC4)c3c2)c1` (stereo not shown) [Example 319, 3-[1-(ethylsulfonyl)-4-piperidinyl]-5-(3-fluoro-5-{[(2-methylbutyl)amino]methyl}phenyl)-1H-indole-7-carboxamide trifluoroacetate]: the figures for the IC50 in experiment [1] and in experiment [2] were at most 10 µM and at most 1.5 µM, respectively.
As to `CCS(=O)(=O)N1CCC(c2c[nH]c3c(C(N)=O)cc(-c4cc(F)cc(CN[C@H](C)C(C)(C)C)c4)cc23)CC1` [Example 320, 3-[1-(ethylsulfonyl)-4-piperidinyl]-5-[3-fluoro-5-({[(1R)-1,2,2-trimethylpropyl]amino}methyl)phenyl]-1H-indole-7-carboxamide trifluoroacetate], the IC50 was at most 10 µM in experiment [1] and at most 1.5 µM in experiment [2].
Regarding `CCS(=O)(=O)N1CCC(c2c[nH]c3c(C(N)=O)cc(-c4cc(F)cc(CNCC(C)(C)C)c4)cc23)CC1` [Example 321, 5-(3-{[(2,2-dimethylpropyl)amino]methyl}-5-fluorophenyl)-3-[1-(ethylsulfonyl)-4-piperidinyl]-1H-indole-7-carboxamide trifluoroacetate], the IC50 was at most 10 µM in experiment [1] and at most 1.5 µM in experiment [2].
On to `CCS(=O)(=O)N1CCC(c2c[nH]c3c(C(N)=O)cc(-c4cc(F)cc(CNCC5CC5)c4)cc23)CC1` [Example 322, 5-(3-{[(cyclopropylmethyl)amino]methyl}-5-fluorophenyl)-3-[1-(ethylsulfonyl)-4-piperidinyl]-1H-indole-7-carboxamide trifluoroacetate], for which the IC50 in experiment [1] was at most 10 µM; in experiment [2], at most 1.5 µM.
Regarding `CCS(=O)(=O)N1CCC(c2c[nH]c3c(C(N)=O)cc(-c4cc(F)cc(CNCC5CCCC5)c4)cc23)CC1` [Example 323, 5-(3-{[(cyclopentylmethyl)amino]methyl}-5-fluorophenyl)-3-[1-(ethylsulfonyl)-4-piperidinyl]-1H-indole-7-carboxamide trifluoroacetate], the IC50 was at most 10 µM in experiment [1] and at most 1.5 µM in experiment [2].
Take `CCS(=O)(=O)N1CCC(c2c[nH]c3c(C(N)=O)cc(-c4cc(F)cc(CNCC5CCOCC5)c4)cc23)CC1` [Example 324, 3-[1-(ethylsulfonyl)-4-piperidinyl]-5-(3-fluoro-5-{[(tetrahydro-2H-pyran-4-ylmethyl)amino]methyl}phenyl)-1H-indole-7-carboxamide trifluoroacetate]: the results for the IC50 in experiment [1] and in experiment [2] were at most 10 µM and at most 1.5 µM, respectively.
As for `CCS(=O)(=O)N1CCC(c2c[nH]c3c(C(N)=O)cc(-c4cc(F)cc(CNCc5cccs5)c4)cc23)CC1` [Example 325, 3-[1-(ethylsulfonyl)-4-piperidinyl]-5-(3-fluoro-5-{[(2-thienylmethyl)amino]methyl}phenyl)-1H-indole-7-carboxamide trifluoroacetate], the results for the IC50 in experiment [1] and in experiment [2] were at most 10 µM and at most 1.5 µM, respectively.
On to `CCS(=O)(=O)N1CCC(c2c[nH]c3c(C(N)=O)cc(-c4cc(F)cc(CNCCOC)c4)cc23)CC1` [Example 326, 3-[1-(ethylsulfonyl)-4-piperidinyl]-5-[3-fluoro-5-({[2-(methyloxy)ethyl]amino}methyl)phenyl]-1H-indole-7-carboxamide trifluoroacetate], for which the IC50 in experiment [1] was at most 10 µM; in experiment [2], at most 1.5 µM.
With `CCS(=O)(=O)N1CCC(c2c[nH]c3c(C(N)=O)cc(-c4cc(F)cc(CNCCCOC)c4)cc23)CC1` [Example 327, 3-[1-(ethylsulfonyl)-4-piperidinyl]-5-[3-fluoro-5-({[3-(methyloxy)propyl]amino}methyl)phenyl]-1H-indole-7-carboxamide trifluoroacetate], the IC50 in experiment [1] was at most 10 µM; in experiment [2], at most 1.5 µM.
Consider `CCS(=O)(=O)N1CCC(c2c[nH]c3c(C(N)=O)cc(-c4cc(F)cc(CNCc5ccco5)c4)cc23)CC1` [Example 328, 3-[1-(ethylsulfonyl)-4-piperidinyl]-5-(3-fluoro-5-{[(2-furanylmethyl)amino]methyl}phenyl)-1H-indole-7-carboxamide trifluoroacetate], for which, in experiment [1], the IC50 was at most 10 µM. In addition, the inhibition at 0.3 µM in experiment [2] (read-out: inhibition at 300 nM in the monocyte assay) was in the range of 0 to 60%.
For the molecule `CCS(=O)(=O)N1CCC(c2c[nH]c3c(C(N)=O)cc(-c4cc(F)cc(CNCCC(C)C)c4)cc23)CC1` [Example 329, 3-[1-(ethylsulfonyl)-4-piperidinyl]-5-(3-fluoro-5-{[(3-methylbutyl)amino]methyl}phenyl)-1H-indole-7-carboxamide trifluoroacetate], the IC50 in experiment [1] was at most 10 µM; in experiment [2], at most 1.5 µM.
For `CCS(=O)(=O)N1CCC(c2c[nH]c3c(C(N)=O)cc(-c4cc(F)cc(CNCc5ccc(C)o5)c4)cc23)CC1` [Example 330, 3-[1-(ethylsulfonyl)-4-piperidinyl]-5-[3-fluoro-5-({[(5-methyl-2-furanyl)methyl]amino}methyl)phenyl]-1H-indole-7-carboxamide trifluoroacetate], the IC50 in experiment [1] is at most 10 µM; in experiment [2], above 1 µM.
Turning to `CCS(=O)(=O)N1CCC(c2c[nH]c3c(C(N)=O)cc(-c4cccc(C5CCCN5)c4)cc23)CC1` (stereo not shown) [Example 332, 3-[1-(ethylsulfonyl)-4-piperidinyl]-5-[3-(2-pyrrolidinyl)phenyl]-1H-indole-7-carboxamide trifluoroacetate], the IC50 in experiment [1] was at most 10 µM; in experiment [2], at most 1.5 µM.
On to `CCS(=O)(=O)N1CCC(c2c[nH]c3c(C(N)=O)cc(-c4cc(CNC)ccc4F)cc23)CC1` [Example 333, 3-[1-(ethylsulfonyl)-4-piperidinyl]-5-{2-fluoro-5-[(methylamino)methyl]phenyl}-1H-indole-7-carboxamide trifluoroacetate], for which the results for the IC50 in experiment [1] and in experiment [2] were at most 10 µM and at most 1.5 µM, respectively.
For `CCCNCc1ccc(F)c(-c2cc(C(N)=O)c3[nH]cc(C4CCN(S(=O)(=O)CC)CC4)c3c2)c1` [Example 334, 3-[1-(ethylsulfonyl)-4-piperidinyl]-5-{2-fluoro-5-[(propylamino)methyl]phenyl}-1H-indole-7-carboxamide trifluoroacetate], the IC50 in experiment [1] is at most 10 µM; in experiment [2] it was at most 1.5 µM.
For `CCS(=O)(=O)N1CCC(c2c[nH]c3c(C(N)=O)cc(-c4cc(CNCC(C)C)ccc4F)cc23)CC1` [Example 335, 3-[1-(ethylsulfonyl)-4-piperidinyl]-5-(2-fluoro-5-{[(2-methylpropyl)amino]methyl}phenyl)-1H-indole-7-carboxamide trifluoroacetate], the IC50 is at most 10 µM in experiment [1] and at most 1.5 µM in experiment [2].
